Data published in ChEMBL document CHEMBL2021786, “The discovery of 2-fluoro-N-(3-fluoro-4-(5-((4-morpholinobutyl)amino)-1,3,4-oxadiazol-2-yl)phenyl)benzamide, a full agonist of the alpha-7 nicotinic acetylcholine receptor showing efficacy in the novel object recognition model of cognition enhancement” (Bioorg Med Chem Lett, 2012).

What was measured:
MDR1 = assay: Intrinsic permeability of the compound in MDCK cells expressing MDR1; assay type: ADME, cell-based, Canis lupus familiaris; settings: dog
Liver [1] = assay: Clearance in rat liver assessed per gram of tissue; assay type: ADME, tissue-based; settings: in vivo
Liver [2] = assay: Clearance in human liver assessed per gram of tissue; assay type: ADME, tissue-based
[3] = Blood clearance in Sprague-Dawley rat at 1 mg/kg, iv; assay type: ADME, organism-based; design: dose 1 mg/kg, route intravenous
[4] = Tmax in Sprague-Dawley rat at 3 mg/kg, po; assay type: ADME, organism-based; design: dose 3 mg/kg, route oral; settings: in vivo
[5] = Oral bioavailability in Sprague-Dawley rat at 3 mg/kg; assay type: ADME, organism-based; settings: in vivo
[6] = Ratio of drug level in brain to blood in CD1 mouse at 5 mg/kg, po after 3 hrs; assay type: ADME, organism-based; design: dose 5 mg/kg, route oral
Blood = assay: Drug level in novel object recognition model of rat blood at 0.1 mg/kg, po; assay type: ADME, organism-based; design: dose 0.1 mg/kg, route oral; settings: in vivo, read-out: Drug uptake
[7] = Half life in Sprague-Dawley rat at 1 mg/kg, iv; assay type: ADME, organism-based; design: dose 1 mg/kg, route intravenous; settings: in vivo
[8] = Tmax in po dosed rat; assay type: ADME, organism-based; settings: in vivo
[9] = Ratio of drug level in brain to blood in Lister Hooded rat at 3 mg/kg, po after 3 hrs; assay type: ADME, organism-based; design: dose 3 mg/kg, route oral

COc1cc(NC(=O)c2ccccc2F)ccc1-c1nnc(NCCCCN2CCOCC2)o1
Papp (MDR1): 57.3 ×10⁻⁶ cm/s

COc1cc(NC(=O)c2ccccc2F)ccc1-c1nnc(NCCCCN2CCCCC2)o1
Papp (MDR1): 25.1 ×10⁻⁶ cm/s

O=C(Nc1ccc(-c2nnc(NCCCCN3CCOCC3)o2)c(F)c1)c1ccccc1
Papp (MDR1): 28.5 ×10⁻⁶ cm/s

O=C(Nc1ccc(-c2nnc(NCCCN3CCN4CCC3CC4)o2)cc1)c1ccccc1F
Papp (MDR1): 4.2 ×10⁻⁶ cm/s

O=C(Nc1ccc(-c2nnc(NCCCCN3CCCCC3)o2)cc1)C1CCCCC1
Papp (MDR1): 9.8 ×10⁻⁶ cm/s

O=C(Nc1ccc(-c2nnc(NCCCCN3CCOCC3)o2)c(F)c1)c1ccccc1F
Papp (MDR1): 73.6 ×10⁻⁶ cm/s
CLH (Liver [1]): < 0.5 mL/min/g
CLH (Liver [2]): < 0.5 mL/min/g
clearance [3]: 54 mL/min/kg
Tmax [4]: 1 h
bioavailability [5]: 20%
Kp at 3 h [6]: 0.53
concentration (Blood): 10.5 nM

O=C(Nc1ccc(-c2nnc(NCCCCN3CCC(F)CC3)o2)cc1)c1ccccc1F
Papp (MDR1): 70.3 ×10⁻⁶ cm/s

O=C(Nc1ccc(-c2nnc(NCCCCN3CCOCC3)o2)cc1)c1ccccc1F
Papp (MDR1): 75.6 ×10⁻⁶ cm/s
CLH (Liver [1]): 0.8 mL/min/g
CLH (Liver [2]): < 0.5 mL/min/g
clearance [3]: 37 mL/min/kg
half-life [7]: 1.6 h
Tmax [4]: 1 h
bioavailability [5]: 22%
Kp at 3 h [6]: 0.62

COc1cc(NC(=O)c2ccccc2F)ccc1-c1nnc(NCCCN2CCCCC2)o1
Tmax [8]: 3 h

O=C(Nc1ccc(-c2nnc(NCCCCN3CCCCC3)o2)cc1)c1ccccc1F
Papp (MDR1): 127 ×10⁻⁶ cm/s
CLH (Liver [1]): < 0.5 mL/min/g
CLH (Liver [2]): 0.5 mL/min/g
clearance [3]: 42 mL/min/kg
half-life [7]: 2.7 h
Kp at 3 h [9]: 0.99

O=C(Nc1ccc(-c2nnc(NCCCCN3CCCCC3)o2)cc1)c1ccccc1
Papp (MDR1): 33.7 ×10⁻⁶ cm/s
